In US12630563B2, “Macrocyclic RIP2-kinase inhibitors” (Oncodesign S.A., priority 2020, dated 2026):

Legend:
[1] = target: T1, recombinant hRIPK2 protein (kinase domain aa 1-299-His-tagged) (Homo sapiens, UniProt O43353); assay: RIPK2 AlphaLISA assay (displacement of bead-bound CZC-8004 from hRIPK2); type: binding; details: recombinant hRIPK2 kinase domain 10 nM, 2 h at 23° C.
T1 construct: kinase domain aa 1-299-His-tagged; purchased Life Technologies PR7829A
Method in brief: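 His-tagged kinase domain (10 nM, as diluted) was mixed with compound (0.8% DMSO), acceptor beads bearing the probe CZC-8004 and Ni2+ donor beads. After 2 h at 23 °C, AlphaLISA signal was read. Loss of signal reflects displacement of the probe from RIPK2.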

[2] = Human protein binding free fraction (Assay A, RED plate equilibrium dialysis); type: in vitro ADME; details: plasma, read-out: Assay A: Human protein binding free fraction (F %)
Protocol: Human protein binding protocol: Compound was added to plasma or brain homogenate and incubated at 2 μM at 37° C. in the RED plate (Thermo n° 96009, cut-off 8000 Da) against PBS buffer. After 4 h, aliquots of plasma and buffer side were transferred to a well containing acetonitrile with an internal standard. After protein precipitation, samples were centrifuged and supernatant was injected in LC/MS/MS. Standards were prepared in the same matrix and treated as samples.
A fraction unbound (fuplasma) was determined for each plasma sample as follows: […]

[3] = Human Clint, microsomal metabolic stability (Assay B); type: in vitro ADME; details: pooled liver microsomes 0.5 mg/mL, 0.5 μM compound, NADPH
Protocol: Human Clint protocol: Pooled liver microsomes (Sekisui Xenotech) were diluted at 0.5 mg/mL in 50 mM phosphate buffer, pH 7.4 then pre-incubated with 0.5 μM […] for 7 min at 37° C. The reactions were initiated by adding prewarmed cofactor (0.44 mM NADPH). Aliquots of samples were taken at 0, 5, 10, 20 and 45 min and the reactions stopped by addition of cold acetonitrile containing an internal standard. Samples were centrifuged at 3000 g for 10 min at 4° C. and then supernatants were analyzed by LC/MS/MS for the amount of parent compound remaining.

[4] = target: T2, hERG potassium channel (Homo sapiens, UniProt Q12809); assay: hERG q-patch assay (Assay C, Sophion Qube automated electrophysiology); type: cell-based; details: read-out: Assay C: hERG q-patch inhibition IC50
T2 construct: host or cells: HEK (hERG-HEK stably transfected cell line)
T2 sequence (Q12809 whole entry): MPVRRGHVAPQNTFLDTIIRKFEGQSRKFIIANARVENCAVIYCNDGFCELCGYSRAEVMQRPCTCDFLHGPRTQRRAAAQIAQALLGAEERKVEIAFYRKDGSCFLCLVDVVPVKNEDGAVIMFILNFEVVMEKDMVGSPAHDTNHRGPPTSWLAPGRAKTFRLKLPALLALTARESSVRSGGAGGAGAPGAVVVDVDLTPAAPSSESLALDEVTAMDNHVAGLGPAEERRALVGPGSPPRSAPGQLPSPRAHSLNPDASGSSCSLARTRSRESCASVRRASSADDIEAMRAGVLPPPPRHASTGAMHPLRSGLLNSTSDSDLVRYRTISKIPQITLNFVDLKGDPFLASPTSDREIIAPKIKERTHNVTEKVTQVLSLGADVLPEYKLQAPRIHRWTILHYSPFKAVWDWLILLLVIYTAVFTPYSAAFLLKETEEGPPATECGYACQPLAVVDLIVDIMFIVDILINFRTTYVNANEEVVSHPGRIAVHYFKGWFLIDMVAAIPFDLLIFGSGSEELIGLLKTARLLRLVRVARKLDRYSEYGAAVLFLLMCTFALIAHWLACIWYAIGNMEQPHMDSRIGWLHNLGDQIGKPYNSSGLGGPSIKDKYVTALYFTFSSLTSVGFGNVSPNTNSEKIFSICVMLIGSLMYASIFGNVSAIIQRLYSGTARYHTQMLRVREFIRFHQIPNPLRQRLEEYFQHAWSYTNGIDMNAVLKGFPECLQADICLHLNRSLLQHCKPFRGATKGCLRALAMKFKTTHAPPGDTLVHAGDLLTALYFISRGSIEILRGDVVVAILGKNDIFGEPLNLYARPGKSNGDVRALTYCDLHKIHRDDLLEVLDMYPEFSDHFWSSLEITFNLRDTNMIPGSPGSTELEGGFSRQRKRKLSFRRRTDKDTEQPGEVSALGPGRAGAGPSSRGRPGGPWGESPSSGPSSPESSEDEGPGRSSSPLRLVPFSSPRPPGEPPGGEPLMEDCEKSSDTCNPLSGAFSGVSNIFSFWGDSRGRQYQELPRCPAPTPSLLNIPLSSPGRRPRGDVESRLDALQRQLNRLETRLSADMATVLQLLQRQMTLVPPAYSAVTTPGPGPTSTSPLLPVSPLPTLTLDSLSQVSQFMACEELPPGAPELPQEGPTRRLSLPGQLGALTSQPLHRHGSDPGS
Protocol: hERG q-patch assay protocol: The potential for test compound to inhibit the hERG potassium channel was determined using the Charles River ChanTest® hERG-HEK stably transfected cell line on the Sophion Qube automated electrophysiology platform. The assay was performed at room temperature and recordings of the hERG tail current from a population of cells were made using multi-hole QChips.

T1 sequence (O43353 1-299): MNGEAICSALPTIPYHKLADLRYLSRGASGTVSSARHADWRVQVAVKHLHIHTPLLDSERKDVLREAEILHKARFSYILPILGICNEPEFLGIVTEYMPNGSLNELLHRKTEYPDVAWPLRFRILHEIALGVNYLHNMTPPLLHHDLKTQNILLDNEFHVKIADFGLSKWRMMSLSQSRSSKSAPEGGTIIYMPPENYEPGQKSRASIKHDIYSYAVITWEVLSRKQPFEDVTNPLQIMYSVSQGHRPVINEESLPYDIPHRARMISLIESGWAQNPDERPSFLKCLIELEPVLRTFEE

IC50 [1]: < 0.01 µM
fraction unbound at 4 h, 2 μM [2]: > 0.01
Compound: CO[C@@H]1C[C@H]2COc3ccn4ncc(c4n3)-c3cc(F)cc(c3)NCCN2C1=O [Example 3, (12R,14S)-4-fluoro-12-methoxy-16-oxa-7,10,20,21,24-pentaazapentacyclo[15.5.2.1^2,6.0^10,^14.0^20,^23] pentacosa-1(23),2(25),3,5,17(24),18,21-heptaen-11-one]
Assay B: Human Clint (hCl) [3]: ++ (++ indicates hCl between 6-18 ug/min/mg prot)
IC50 [4]: > 10 µM
